Test system: iNKT cells in the eWAT
Experiment: Flow cytometry of iNKT cells in eWAT SVF of HFD mice (CD1d tetramer)
Format: in vivo, mouse
Settings: 2 μg i.p., vs obese mice treated with vehicle
Method: α-GalCer activation of iNKT cells. iNKT cells were activated in vivo using α-GalCer as described in Peralbo et al., 2006. Decreased frequency and proliferative response of invariant Vα24Vβ11 natural killer T (iNKT) cells in healthy elderly. Biogerontology 7, 483-492. Briefly, HFD mice were i.p. injected with 200 μl of a 10 μg/ml α-GalCer solution (2 μg total) made up in 5.6% Sucrose, 5% Tween-20. On day 3 or 4 post-injection, mice were euthanized for various experiments, as indicated.
Flow cytometry of iNKT cells. eWAT SVF cells were stained with PBS57 (α-GalCer-analog) loaded onto CD1d-PE tetramers prepared by the NIH Tetramer Core and anti-CD3-APC. As a negative control for subtracting background staining in eWAT SVF, samples were also stained with unloaded CD1d-PE tetramer and anti-CD3-APC. Live cells were enumerated with DAPI, and flow cytometry was performed on an Attune acoustic focusing cytometer. Gates were set to identify: cells (FSC-A/SSC-A), forward scatter singlets (FSC-H/FSC-A), side-scatter singlets (SSC-H/SSC-A), live cells (DAPI^−), and the PBS57::CD1d-PE^+/CD3-APC^+ subpopulation. The percent of unloaded CD1d-PE^+/CD3-APC^+ cells were subtracted from the loaded tetramer stained populations to eliminate the percent of background stained cells. For lung, 1×10^6 cells from each sample were used to quantify iNKT cells. […]

CCCCCCCCCCCCCCCCCCCCCCCCCC(=O)N[C@@H](CO[C@H]1O[C@H](CO)[C@H](O)[C@H](O)[C@H]1O)[C@H](O)[C@H](O)CCCCCCCCCCCCCC [GalCer, alpha-Galactosylceramide]
iNKT cell numbers in eWAT: dramatically increase iNKT cell numbers

Reference: patent publication US20230172984A1, “CLEARANCE OF SENESCENT CELLS BY ACTIVATION OF iNKT CELLS” (THE REGENTS OF THE UNIVERSITY OF CALIFORNIA, priority 2020, published 2023)
